{"source": "patent US20060069132A1", "about": "“Azolecarboxamide herbicides” (priority 2004, published 2006)", "key": {"velvetleaf": {"system": "velvetleaf", "experiment": "Test B pre-/postemergence herbicide test", "type": "in vivo, Abutilon theophrasti", "conditions": "for Velvetleaf plant response rating: postemergence, scale 0 (no effect) to 100 (complete control)", "outline": "(§1)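 Test chemicals in a non-phytotoxic solvent mixture with surfactant were applied preemergence to seeded species and postemergence to plants 2-18 cm tall (1- to 4-leaf stage); rice and barnyardgrass were also tested in a flooded paddy at the 2-leaf stage. Visual rating versus controls after 13-15 days in greenhouse, scale 0 (no effect) to 100 (complete control).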"}, "corn": {"system": "corn", "experiment": "Test B pre-/postemergence herbicide test", "type": "in vivo, Zea mays", "conditions": "for Corn plant response rating: postemergence, visual rating, scale 0 (no effect) to 100 (complete control)", "outline": "as §1"}, "giant foxtail": {"system": "giant foxtail", "experiment": "Test B pre-/postemergence herbicide test", "type": "in vivo, Setaria faberi", "conditions": "for Foxtail, Giant plant response rating: postemergence, scale 0 (no effect) to 100 (complete control)", "outline": "as §1"}, "blackgrass": {"system": "blackgrass", "experiment": "Test B postemergence herbicide test", "type": "in vivo, Alopecurus myosuroides", "conditions": "postemergence, visual rating, scale 0 (no effect) to 100 (complete control)", "outline": "(§2)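 Greenhouse test; postemergence application to plants at 1–4 leaves (2–18 cm); paddy species at 2 leaves; evaluated visually vs controls at 13–15 days; scale 0–100 (100 = complete control).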"}, "cocklebur": {"system": "cocklebur", "experiment": "Test B pre-/postemergence herbicide test", "type": "in vivo, Xanthium strumarium", "conditions": "for Cocklebur plant response rating: postemergence, scale 0 (no effect) to 100 (complete control)", "outline": "(§3)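 Greenhouse pot assay with simultaneous preemergence (treated seed) and postemergence (2–18 cm seedlings) applications of surfactant-containing, non-phytotoxic solvent formulations. Response scored visually 13–15 days later on a 0–100 scale, 100 meaning complete control.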"}, "rice [1]": {"system": "rice", "experiment": "Test B pre-/postemergence herbicide test", "type": "in vivo, Oryza sativa", "conditions": "0 = no effect, 100 = complete control, preemergence", "outline": "as §1"}, "barnyardgrass [2]": {"system": "barnyardgrass", "experiment": "Test B pre-/postemergence herbicide test", "type": "in vivo, Echinochloa crus-galli", "conditions": "0 = no effect, 100 = complete control, preemergence", "outline": "as §3"}, "barnyardgrass [3]": {"system": "barnyardgrass", "experiment": "Test B flooded paddy test", "type": "in vivo, Echinochloa crus-galli", "conditions": "1000 g ai/ha, scale 0 to 100 (0 no effect, 100 complete control)", "outline": "as §2"}, "morningglory": {"system": "morningglory", "experiment": "Test B pre-/postemergence herbicide test", "type": "in vivo, Ipomoea coccinea", "conditions": "for Morningglory plant response rating: postemergence, scale 0 (no effect) to 100 (complete control)", "outline": "as §3"}, "wild oat": {"system": "wild oat", "experiment": "Test B postemergence herbicide test", "type": "in vivo, Avena fatua", "conditions": "postemergence, visual rating, scale 0 (no effect) to 100 (complete control)", "outline": "(§4)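 Read-out: visual comparison with controls, scored 0 to 100, where 100 means complete control and 0 no effect. Formulated chemicals were applied postemergence to plants 2–18 cm tall (1- to 4-leaf), or to flooded-paddy plants at the 2-leaf stage, then held 13 to 15 days under glass.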"}, "pigweed": {"system": "pigweed", "experiment": "Test B pre-/postemergence herbicide test", "type": "in vivo, Amaranthus retroflexus", "conditions": "for Pigweed plant response rating: postemergence, scale 0 (no effect) to 100 (complete control)", "outline": "as §1"}, "[4]": {"system": "small flower umbrella sedge", "experiment": "Test B flooded paddy test", "type": "in vivo, Cyperus difformis", "conditions": "1000 g ai/ha, scale 0 to 100 (0 no effect, 100 complete control)", "outline": "as §2"}, "lambsquarters": {"system": "lambsquarters", "experiment": "Test B pre-/postemergence herbicide test", "type": "in vivo, Chenopodium album", "conditions": "for Lambsquarters plant response rating: postemergence, scale 0 (no effect) to 100 (complete control)", "outline": "as §1"}, "rice [5]": {"system": "rice", "experiment": "Test B flooded paddy test", "type": "in vivo, Oryza sativa", "conditions": "1000 g ai/ha, scale 0 to 100 (0 no effect, 100 complete control)", "outline": "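Paddy species grown to the 2-leaf stage under flooding; blackgrass sprayed postemergence at 2–18 cm (1- to 4-leaf stage). Plants kept in a greenhouse for 13 to 15 days, then visually rated against controls on 0 (no effect) to 100 (complete control).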"}, "ducksalad": {"system": "ducksalad", "experiment": "Test B flooded paddy test", "type": "in vivo, Heteranthera limosa", "conditions": "1000 g ai/ha, scale 0 to 100 (0 no effect, 100 complete control)", "outline": "as §2"}, "large crabgrass": {"system": "large crabgrass", "experiment": "Test B pre-/postemergence herbicide test", "type": "in vivo, Digitaria sanguinalis", "conditions": "for Crabgrass, Large plant response rating: postemergence, scale 0 (no effect) to 100 (complete control)", "outline": "as §1"}, "wheat": {"system": "wheat", "experiment": "Test B postemergence herbicide test", "type": "in vivo, Triticum aestivum", "design": "key to Wheat plant response rating: 0 = no effect, 100 = complete control", "conditions": "postemergence, visual rating, scale 0 (no effect) to 100 (complete control)", "outline": "as §4"}, "Surinam grass": {"system": "Surinam grass", "experiment": "Test B pre-/postemergence herbicide test", "type": "in vivo, Urochloa decumbens", "conditions": "for Surinam Grass plant response rating: postemergence, scale 0 (no effect) to 100 (complete control)", "outline": "as §1"}, "[6]": {"conditions": "125 g ai/ha, 0 = no effect, 100 = complete control, preemergence"}, "[7]": {"conditions": "500 g ai/ha, visual rating, 0 = no effect, 100 = complete control, preemergence"}}}
{"smiles": "CCc1cn(C(C)(C)C)nc1C(=O)Nc1cc(C(=O)N(CC)CC)ccn1", "note": "[Compound 234]", "values": [{"measurement": "Velvetleaf plant response rating (0 to 100 scale)", "setting": "velvetleaf; [6]", "value": 0}, {"measurement": "Plant response rating, Velvetleaf", "setting": "velvetleaf; [7]", "value": 0}, {"measurement": "Velvetleaf plant response rating", "setting": "velvetleaf; 125 g ai/ha, visual rating", "value": 20}, {"measurement": "Velvetleaf plant response rating", "setting": "velvetleaf; 500 g ai/ha, visual rating", "value": 30}, {"measurement": "Corn plant response rating (0 to 100 scale)", "setting": "corn; [6]", "value": 0}, {"measurement": "Corn plant response rating", "setting": "corn; 125 g ai/ha", "value": 0}, {"measurement": "Corn plant response rating", "setting": "corn; 500 g ai/ha", "value": 20}, {"measurement": "Foxtail, Giant plant response rating (0 to 100 scale)", "setting": "giant foxtail; [6]", "value": 0}, {"measurement": "Plant response rating, Foxtail, Giant", "setting": "giant foxtail; [7]", "value": 10}, {"measurement": "Foxtail, Giant plant response rating", "setting": "giant foxtail; 125 g ai/ha, visual rating", "value": 0}, {"measurement": "Foxtail, Giant plant response rating", "setting": "giant foxtail; 500 g ai/ha, visual rating", "value": 30}, {"measurement": "Blackgrass plant response rating", "setting": "blackgrass; 125 g ai/ha", "value": 0}, {"measurement": "Blackgrass plant response rating", "setting": "blackgrass; 500 g ai/ha", "value": 0}, {"measurement": "Cocklebur plant response rating (0 to 100 scale)", "setting": "cocklebur; [6]", "value": 0}, {"measurement": "Plant response rating, Cocklebur", "setting": "cocklebur; [7]", "value": 0}, {"measurement": "Cocklebur plant response rating", "setting": "cocklebur; 125 g ai/ha, visual rating", "value": 10}, {"measurement": "Cocklebur plant response rating", "setting": "cocklebur; 500 g ai/ha, visual rating", "value": 20}, {"measurement": "Rice plant response rating (0 to 100 scale)", "setting": "rice [1]; 125 g ai/ha", "value": 0}, {"measurement": "Plant response rating, Rice", "setting": "rice [1]; 500 g ai/ha, visual rating", "value": 0}, {"measurement": "Barnyardgrass plant response rating (0 to 100 scale)", "setting": "barnyardgrass [2]; 125 g ai/ha", "value": 0}, {"measurement": "Plant response rating, Barnyardgrass", "setting": "barnyardgrass [2]; 500 g ai/ha, visual rating", "value": 0}, {"measurement": "Barnyardgrass plant response rating", "setting": "barnyardgrass [3]", "value": 0}, {"measurement": "Morningglory plant response rating (0 to 100 scale)", "setting": "morningglory; [6]", "value": 0}, {"measurement": "Plant response rating, Morningglory", "setting": "morningglory; [7]", "value": 0}, {"measurement": "Morningglory plant response rating", "setting": "morningglory; 125 g ai/ha, visual rating", "value": 20}, {"measurement": "Morningglory plant response rating", "setting": "morningglory; 500 g ai/ha, visual rating", "value": 70}, {"measurement": "Oat, Wild plant response rating", "setting": "wild oat; 125 g ai/ha", "value": 20}, {"measurement": "Oat, Wild plant response rating", "setting": "wild oat; 500 g ai/ha", "value": 20}, {"measurement": "Pigweed plant response rating (0 to 100 scale)", "setting": "pigweed; [6]", "value": 0}, {"measurement": "Plant response rating, Pigweed", "setting": "pigweed; [7]", "value": 40}, {"measurement": "Pigweed plant response rating", "setting": "pigweed; 125 g ai/ha, visual rating", "value": 30}, {"measurement": "Pigweed plant response rating", "setting": "pigweed; 500 g ai/ha, visual rating", "value": 30}, {"measurement": "Sedge, Umbrella plant response rating", "setting": "[4]", "value": 0}, {"measurement": "Lambsquarters plant response rating (0 to 100 scale)", "setting": "lambsquarters; [6]", "value": 0}, {"measurement": "Plant response rating, Lambsquarters", "setting": "lambsquarters; [7]", "value": 50}, {"measurement": "Lambsquarters plant response rating", "setting": "lambsquarters; 125 g ai/ha, visual rating", "value": 20}, {"measurement": "Lambsquarters plant response rating", "setting": "lambsquarters; 500 g ai/ha, visual rating", "value": 40}, {"measurement": "Rice plant response rating", "setting": "rice [5]", "value": 0}, {"measurement": "Ducksalad plant response rating", "setting": "ducksalad", "value": 0}, {"measurement": "Crabgrass, Large plant response rating (0 to 100 scale)", "setting": "large crabgrass; [6]", "value": 0}, {"measurement": "Plant response rating, Crabgrass, Large", "setting": "large crabgrass; [7]", "value": 40}, {"measurement": "Crabgrass, Large plant response rating", "setting": "large crabgrass; 125 g ai/ha, visual rating", "value": 10}, {"measurement": "Crabgrass, Large plant response rating", "setting": "large crabgrass; 500 g ai/ha, visual rating", "value": 20}, {"measurement": "Wheat plant response rating", "setting": "wheat; 125 g ai/ha", "value": 0}, {"measurement": "Wheat plant response rating", "setting": "wheat; 500 g ai/ha", "value": 10}, {"measurement": "Surinam Grass plant response rating (0 to 100 scale)", "setting": "Surinam grass; [6]", "value": 0}, {"measurement": "Plant response rating, Surinam Grass", "setting": "Surinam grass; [7]", "value": 0}, {"measurement": "Surinam Grass plant response rating", "setting": "Surinam grass; 125 g ai/ha, visual rating", "value": 0}, {"measurement": "Surinam Grass plant response rating", "setting": "Surinam grass; 500 g ai/ha, visual rating", "value": 10}]}
